Assay results reported in ChEMBL document CHEMBL2331281, “Isolation of ciliatamide D from a marine sponge Stelletta sp. and a reinvestigation of the configuration of ciliatamide A” (J Nat Prod, 2013).
Activity calls are given as the source filed them. No cut-off for these calls is given here.

Key:
[1] = target: Cathepsin B (Homo sapiens) (UniProt P07858); test: Inhibition of cathepsin B (unknown origin) using Z-Arg-Arg-AMC as substrate at 50 ug/ml after 30 mins by fluorescence assay
HeLa = test: Cytotoxicity against human HeLa cells at 50 ug/ml after 72 hrs by MTT assay; assay type: functional, cell-based

In the case of `C=CCCCCCCCC(=O)N(C)[C@@H](CC[S+](C)[O-])C(=O)N[C@H]1CCCCNC1=O` (mixture of isomers), the inhibition [1] is reported as “inactive” and the Activity (HeLa) is reported as “inactive”.
